According to patent US11965039B2, “Compstatin analogues and their medical uses” (priority 2018, dated 2024):

Tested on: classical complement pathway
Experiment: In vitro haemolysis assay (inhibition of classical complement pathway)
Format: cell-based, human
Details: human serum, sensitized sheep red blood cells; Table 3, given as upper bounds; read-out: IC50, inhibition of hemolysis
Method: The in vitro effect of the compounds of the present invention was assessed by measuring their inhibitory effect of the classical complement pathway in a haemolysis assay. Briefly, compounds of the present invention and reference compounds were dissolved in DMSO and diluted in Tris/Casein Assay Buffer (10 mM Tris, 145 mM NaCl, 0.5 mM MgCl2, 0.15 mM CaCl2), and 0.1% W/V Casein, adjusted to pH 7.4) as 9-point serial dilutions in a 96 well plate. Sensitized sheep red blood cells (RBC) coated with rabbit anti-sheep erythrocyte antiserum (Complement Technology, Inc., TX, USA) were washed in Tris/Casein Assay Buffer. […] from each well of diluted compound was added to a 96-well plate containing 50 μL diluted human serum (Complement Technology, Inc., TX, USA) and incubated for 15 minutes at room temperature. The serum dilution factor was optimized for every serum batch to obtain 70-90% of maximal haemolysis using the protocol. Then 50 μL sensitized sheep red blood cells were added to all wells (10^7 per well). After 30 minutes of incubation at 37 QC with gentle agitation, the reaction was stopped by addition of 50 μL Tris STOP Buffer per well (10 mM EDTA, 10 mM Tris, 145 mM NaCl adjusted to pH 7.4). The RBCs were then removed by centrifugation and the resulting supernatant measured for hemolysis by absorbance at 405 nm. […]

Q: How did the IC50 turn out when “Ac-IC(1)IWQDWGEHRC(1)TEG-K((15-carboxy-pentadecanoyl)-[(Piperazine-1-yl)-acetyl][Peg3][Peg3])-NH2 [Compound 95]” was run?
A: Its IC50 is < 500 nM.
